# Measurements as given in patent publication US10208000B2, “Eis inhibitors” (priority 2015, dated 2019).
# How the values were obtained:
# K204 Mtb = assay type: cell-based, Mycobacterium tuberculosis; details: KAN MIC in presence of compound at concentration tested (100x IC50 or 20 μM); KAN line = absence of compound
# H37Rv Mtb = assay: Mycobacterial MIC determination by alamar blue assay, KAN with sulfonyl isothiazoles; assay type: cell-based, Mycobacterium tuberculosis; details: KAN MIC in presence of compound at concentration tested (100x IC50 or 20 μM); KAN line = absence of compound
# AAC(6′)-Ie/APH(2″)-Ia [1] = target: T1, AAC(6′)-Ie/APH(2″)-Ia (Staphylococcus aureus, UniProt P0A0C1); assay: Inhibitor selectivity, sulfonamides; assay type: biochemical; details: concentrations as high as 200 μM
# Method: (§1) To examine the selectivity of our two best inhibitors (39 and 46) towards Eis, next these two compounds were tested against three other AAC enzymes: AAC(2′)-Ic from Mtb (17, 18), AAC(3)-IV from E. coli (19, 20), and AAC(6′)-Ie/APH(2″)-Ia from Staphylococcus aureus (21, 22).
# (§2) The conditions utilized for determination of IC50 values were also used here under the optimum conditions for each enzyme. […] AAC(6′)-Ie/APH(2″)-Ia experiments were incubated at 37° C. All other methods and concentrations are the same as for the experiments with Eis_Mtb.
# AAC(3)-IV [2] = assay: Inhibitor selectivity, sulfonamides; assay type: biochemical, E. coli; details: concentrations as high as 200 μM
# Method: as §1, §2
# AAC(2′)-Ic [3] = target: T2, AAC(2′)-Ic (Mycobacterium tuberculosis (strain ATCC 25618 / H37Rv), UniProt P9WQG9); assay: biochemical; set-up: species or system Mtb
# Mtb H37Rv = assay: Mycobacterial MIC determination by alamar blue, KAN with sulfonamides; assay type: cell-based, Mycobacterium tuberculosis; details: anti-TB activity of KAN against Mtb H37Rv with compound; KAN line = KAN alone
# AAC(2′)-Ic [4] = target: T2, AAC(2′)-Ic
# Method: The conditions described above for determination of IC50 values were used under the optimum conditions for each enzyme. […] AAC(6′)/APH(2″) experiments were incubated at 37° C. while AAC(3)-IV and AAC(2′)-Ic experiments were incubated at 25° C. All other methods and concentrations remained identical to those for the experiments with Eis.
# purified Eis = purified Eis (Mycobacterium tuberculosis (strain ATCC 25618 / H37Rv), UniProt P9WFK7); details: read-out: IC50 (μM) in the Eis acetyltransferase assay
# AAC(3)-IV [5] = assay: Inhibitor selectivity, sulfonyl isothiazoles; assay type: biochemical, E. coli; details: optimal reaction conditions for the enzyme
# AAC(6′)-Ie/APH(2″)-Ia [6] = target: T1, AAC(6′)-Ie/APH(2″)-Ia; assay: Inhibitor selectivity, sulfonyl isothiazoles; assay type: biochemical; details: optimal reaction conditions for the enzyme
SMILES,K204 MICKAN (K204 Mtb),H37Rv MICKAN (H37Rv Mtb),also measured
CC1=C(c2cccc(Br)c2)S(=O)(=O)N=C1NCCN1CCOCC1 [Compound 35h],2.5 µg/mL,0.625 µg/mL,
CC1=C(c2ccc(C)c(C)c2)S(=O)(=O)N=C1NCCN1CCOCC1 [Compound 35i],2.5 µg/mL,0.625 µg/mL,
COc1ccc(C2=C(C)C(NCCN3CCN(C)CC3)=NS2(=O)=O)cc1 [Compound 36d],2.5 to 5 µg/mL,0.625 µg/mL,
CCN1CCN(CCNC2=NS(=O)(=O)C(c3ccc(F)cc3)=C2C)CC1 [Compound 37b],2.5 to 5 µg/mL,0.625 µg/mL,
CCN1CCN(CCNC2=NS(=O)(=O)C(c3ccc(OC)cc3)=C2C)CC1 [Compound 37d],5 to 10 µg/mL,0.625 to 1.25 µg/mL,
COc1cccc(N(C)S(=O)(=O)c2ccc3[nH]c(=O)c(=O)[nH]c3c2)c1 [Compound 39],,,inhibition of KAN acetylation by AAC(6′)-Ie/APH(2″)-Ia (AAC(6′)-Ie/APH(2″)-Ia [1]): did not inhibit; inhibition of KAN acetylation by AAC(3)-IV (AAC(3)-IV [2]): did not inhibit; inhibition at 200 µM (AAC(2′)-Ic [3]; read-out: inhibition of AAC(2′)-Ic activity): 15%
CN(c1ccc2ccccc2c1)S(=O)(=O)c1ccc2[nH]c(=O)c(=O)[nH]c2c1 [Compound 46],,,inhibition of KAN acetylation by AAC(6′)-Ie/APH(2″)-Ia (AAC(6′)-Ie/APH(2″)-Ia [1]): did not inhibit; H37Rv MICKAN (Mtb H37Rv): ≤1.25 µg/mL; inhibition of KAN acetylation by AAC(3)-IV (AAC(3)-IV [2]): did not inhibit; inhibition of KAN acetylation by AAC(2′)-Ic (AAC(2′)-Ic [3]): did not inhibit
CC1=C(c2ccccc2)S(=O)(=O)N=C1N1CCC(N2CCCCC2)CC1 [Compound 46a],10 µg/mL,0.625 to 1.25 µg/mL,
CC1=C(c2ccc(F)cc2)S(=O)(=O)N=C1N1CCC(N2CCCCC2)CC1 [Compound 46b],5 µg/mL,0.625 to 1.25 µg/mL,inhibition of AAC(2′)-Ic (AAC(2′)-Ic [4]): no inhibition; IC50 (purified Eis): 0.092 ± 0.021 µM; inhibition of AAC(3)-IV (AAC(3)-IV [5]): no inhibition; inhibition of AAC(6′)-Ie/APH(2″)-Ia (AAC(6′)-Ie/APH(2″)-Ia [6]): no inhibition
CC1=C(c2ccc(Cl)cc2)S(=O)(=O)N=C1N1CCC(N2CCCCC2)CC1 [Compound 46c],2.5 µg/mL,0.625 µg/mL,inhibition of AAC(2′)-Ic (AAC(2′)-Ic [4]): no inhibition; inhibition of AAC(3)-IV (AAC(3)-IV [5]): no inhibition; inhibition of AAC(6′)-Ie/APH(2″)-Ia (AAC(6′)-Ie/APH(2″)-Ia [6]): no inhibition
CC1=C(c2cccc(Br)c2)S(=O)(=O)N=C1N1CCC(N2CCCCC2)CC1 [Compound 46h],5 µg/mL,0.625 µg/mL,
CC1=C(c2ccc(C)c(C)c2)S(=O)(=O)N=C1N1CCC(C(=O)N2CCCC2)CC1 [Compound 52i],2.5 µg/mL,0.625 µg/mL,
CCN(CC)C1=NS(=O)(=O)C(c2ccc(F)cc2)=C1C [Compound 81b],2.5 to 5 µg/mL,0.625 µg/mL,
CCN(CC)C1=NS(=O)(=O)C(c2cccc(Cl)c2)=C1C [Compound 81g],2.5 µg/mL,0.625 µg/mL,
CC1=C(c2ccc(F)cc2)S(=O)(=O)N=C1NCc1ccco1 [Compound 87b],10 µg/mL,1.25 µg/mL,
CC1=C(c2ccc(F)cc2)S(=O)(=O)N=C1NCc1ccccc1 [Compound 89b],10 µg/mL,1.25 µg/mL,
CC1=C(c2ccc(C)c(C)c2)S(=O)(=O)N=C1NCC(=O)NCc1ccc2c(c1)OCO2 [Compound 115i],10 µg/mL,0.625 µg/mL,
CCCNC1=NS(=O)(=O)C(c2ccc(F)cc2)=C1C [Compound 139b],10 µg/mL,0.625 µg/mL,
CCCNC1=NS(=O)(=O)C(c2ccc(C)cc2)=C1C [Compound 139e],10 µg/mL,1.25 µg/mL,
CCCNC1=NS(=O)(=O)C(c2ccc(C)c(C)c2)=C1C [Compound 139i],10 µg/mL,1.25 µg/mL,
"NC[C@H]1O[C@H](O[C@H]2[C@H](O)[C@@H](O[C@H]3O[C@H](CO)[C@@H](O)[C@H](N)[C@H]3O)[C@H](N)C[C@@H]2N)[C@H](O)[C@@H](O)[C@@H]1O [KAN, kanamycin A, reference compound]",10 µg/mL,1.25 µg/mL,
